According to patent US20240270821A1, “GIP/GLP1/GCG TRI-RECEPTOR AGONISTS AND USES THEREOF” (priority 2023, published 2024):
Like-named read-outs stand apart in the source and are kept apart here. Starred links: 1 amine or outer side, 2 acyl side, 3 side chain; linkers in the order of their positions; H or OH if unused. Non-standard residues stand in square brackets, D forms with d. Residues, ends and D or L forms follow the SMILES beside them. Groups on a side chain read outwards from the residue. No end group written: not given here. *: point of attachment. C18 diacid = O=C(O)CCCCCCCCCCCCCCCCC(=O)*; αMePhe(2-F) = C[C@](N)(Cc1ccccc1F)C(=O)O; γGlu = O=C(O)[C@H](CCC(=O)[*:2])N[*:1]; αMe4Pal = C[C@](N)(Cc1ccncc1)C(=O)O; αMeY = C[C@](N)(Cc1ccc(O)cc1)C(=O)O; αMeF = C[C@](N)(Cc1ccccc1)C(=O)O; 4Pal = N[C@@H](Cc1ccncc1)C(=O)O; αMeL = CC(C)C[C@](C)(N)C(=O)O; αMeS = C[C@](N)(CO)C(=O)O; Orn = NCCC[C@H](N)C(=O)O; AEEA = NCCOCCOCC(=O)O; Aib = CC(C)(N)C(=O)O

Tests used:
Type in all cases: cell-based
hGIPR [1] = target: T1, hGIPR (Homo sapiens, UniProt P48546); test: Functional cAMP activity in the presence of 1% HSA; conditions: read-out: cAMP Rel EC50, hGIPR
T1 sequence (P48546 22-466): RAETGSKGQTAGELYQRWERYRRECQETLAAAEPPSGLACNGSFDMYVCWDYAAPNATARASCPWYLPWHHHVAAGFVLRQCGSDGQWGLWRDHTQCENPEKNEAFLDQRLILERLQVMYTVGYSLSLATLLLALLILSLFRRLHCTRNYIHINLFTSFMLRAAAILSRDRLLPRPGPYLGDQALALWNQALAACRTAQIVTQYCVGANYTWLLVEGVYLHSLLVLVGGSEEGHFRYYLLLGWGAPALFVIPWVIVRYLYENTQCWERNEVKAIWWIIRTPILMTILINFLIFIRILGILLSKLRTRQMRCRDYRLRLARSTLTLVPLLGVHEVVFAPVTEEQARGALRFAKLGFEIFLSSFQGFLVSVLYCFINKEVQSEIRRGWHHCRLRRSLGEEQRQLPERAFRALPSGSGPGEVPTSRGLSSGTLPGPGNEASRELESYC

hGLP-1R [2] = target: T2, hGLP-1R (Homo sapiens, UniProt P43220); test: Functional cAMP activity in the presence of 1% HSA; conditions: read-out: cAMP Rel EC50, hGLP-1R
human GcgR = human GcgR (Homo sapiens, UniProt P47871); test: Functional cAMP activity in the presence of 1% HSA; conditions: read-out: cAMP Rel EC50, hGcgR
hGIPR [3] = target: T1, hGIPR; test: Functional cAMP activation in the presence of 0.1% casein (no HSA); conditions: read-out: Relative cAMP EC50, hGIPR;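 for Relative cAMP EC50, hGIPR: intracellular cAMP rise after 30 min at 37 °C read by HTRF against a standard curve, scaled between buffer alone (0%) and top control ligand concentration (100%), four-parameter fit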;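 for Relative cAMP EC50, hGLP-1R: intracellular cAMP rise after 30 min at 37 °C read by HTRF, normalized between buffer only (0%) and maximal control ligand (100%), four-parameter variable-slope fit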;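 for Relative cAMP EC50, hGcgR: intracellular cAMP rise after 30 min at 37 °C, read by HTRF against a cAMP standard curve, scaled from buffer only (0%) to maximal control ligand response (100%)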
hGLP-1R [4] = target: T2, hGLP-1R; test: as above; conditions: read-out: Relative cAMP EC50, hGLP-1R
hGcgR = hGcgR (Homo sapiens, UniProt P47871); test: as above; conditions: read-out: Relative cAMP EC50, hGcgR;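 note: intracellular cAMP rise after 30 min at 37 °C, read by HTRF against a cAMP standard curve, scaled from buffer only (0%) to maximal control ligand response (100%)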
[5] = in the presence of 0.1% casein (no HSA), geometric mean
[6] = 0.1% casein, no HSA, geometric mean

Sequence of human GcgR (P47871 26-477): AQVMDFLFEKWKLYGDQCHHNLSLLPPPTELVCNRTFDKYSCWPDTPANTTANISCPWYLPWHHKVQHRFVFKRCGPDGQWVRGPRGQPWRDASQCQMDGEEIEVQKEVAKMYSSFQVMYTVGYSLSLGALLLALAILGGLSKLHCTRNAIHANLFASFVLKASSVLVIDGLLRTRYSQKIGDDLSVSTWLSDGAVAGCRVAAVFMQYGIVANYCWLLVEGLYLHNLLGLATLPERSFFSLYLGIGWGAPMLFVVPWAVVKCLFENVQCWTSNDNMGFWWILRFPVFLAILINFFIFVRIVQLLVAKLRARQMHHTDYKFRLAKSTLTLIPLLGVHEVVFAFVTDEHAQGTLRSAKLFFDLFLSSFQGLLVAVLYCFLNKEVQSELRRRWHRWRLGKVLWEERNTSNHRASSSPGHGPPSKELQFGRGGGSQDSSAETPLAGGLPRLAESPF
Sequence of hGcgR (P47871 26-477): as above
T2 sequence (P43220 24-463): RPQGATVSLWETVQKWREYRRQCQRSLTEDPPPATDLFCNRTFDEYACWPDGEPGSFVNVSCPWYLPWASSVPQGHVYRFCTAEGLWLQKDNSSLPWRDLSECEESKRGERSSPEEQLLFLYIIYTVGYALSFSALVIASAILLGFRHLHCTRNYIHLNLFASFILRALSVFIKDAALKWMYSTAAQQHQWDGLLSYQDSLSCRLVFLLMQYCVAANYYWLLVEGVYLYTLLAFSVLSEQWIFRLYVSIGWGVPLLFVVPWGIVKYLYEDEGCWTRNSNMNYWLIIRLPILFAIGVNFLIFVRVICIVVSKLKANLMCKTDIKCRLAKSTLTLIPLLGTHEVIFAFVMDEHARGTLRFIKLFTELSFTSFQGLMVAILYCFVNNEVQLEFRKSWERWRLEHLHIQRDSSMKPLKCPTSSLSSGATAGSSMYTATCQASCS

Molecule	EC50 (hGIPR [1])	EC50 (hGLP-1R [2])	EC50 (human GcgR)	EC50 (hGIPR [3])	EC50 (hGLP-1R [4])	EC50 (hGcgR)	EC50 (hGIPR [3]; [5])	EC50 (hGLP-1R [4]; [5])	EC50 (hGcgR; [5])	EC50 (hGIPR [3]; [6])	EC50 (hGLP-1R [4]; [6])	EC50 (hGcgR; [6])
CC[C@H](C)[C@H](NC(=O)[C@H](CC(C)C)NC(=O)[C@](C)(Cc1ccc(O)cc1)NC(=O)[C@@H](CCC(=O)O)NC(=O)[C@@H](NC(=O)[C@H](Cc1ccccc1)NC(=O)[C@H](CO)NC(=O)C(C)(C)NC(=O)[C@H](CCC(N)=O)NC(=O)[C@H](C)NC(=O)[C@H](CCCCNC(=O)CC[C@H](NC(=O)CC[C@H](NC(=O)CCCCCCCCCCCCCCCCC(=O)O)C(=O)O)C(=O)O)NC(=O)[C@H](CCCN)NC(=O)[C@H](CC(=O)O)NC(=O)[C@H](CC(C)C)NC(=O)[C@](C)(CC(C)C)NC(=O)[C@@H](NC(=O)[C@](C)(CO)NC(=O)[C@H](Cc1ccncc1)NC(=O)[C@H](CC(=O)O)NC(=O)[C@H](CO)NC(=O)[C@@H](NC(=O)[C@](C)(Cc1ccccc1F)NC(=O)[C@@H](NC(=O)CNC(=O)[C@H](CCC(N)=O)NC(=O)C(C)(C)NC(=O)[C@@H](N)Cc1ccc(O)cc1)[C@@H](C)O)[C@@H](C)O)[C@@H](C)CC)[C@@H](C)CC)C(=O)N[C@@H](CCC(=O)O)C(=O)NCC(=O)NCC(=O)N1CCC[C@H]1C(=O)N[C@@H](CO)C(=O)N[C@@H](CO)C(=O)NCC(=O)N[C@@H](CCC(=O)O)C(=O)N1CCC[C@H]1C(=O)N1CCC[C@H]1C(=O)N1CCC[C@H]1C(=O)N[C@@H](CCC(=O)O)C(N)=O [Example 436] (H-Y[Aib]QGT[αMePhe(2-F)]TSD[4Pal][αMeS]I[αMeL]LD[Orn]K([γGlu-γGlu-C18 diacid])AQ[Aib]SFI[dE][αMeY]LIEGGPSSGEPPPE-NH2; N-terminus assumed)	1.18 nM	11.7 nM	182 nM	0.0294 nM	0.173 nM	2.27 nM	–	–	–	–	–	–
H-Y[Aib]QGTFTSD[4Pal]S[Orn][αMeL]LD[Orn]K([γGlu-γGlu-C18 diacid])AQ[αMe4Pal]AFIEYLIAGGPSSGEPPPSGE-NH2 [Example 983]	19.4 nM	207 nM	576 nM	–	–	–	0.289 nM	2.35 nM	4.75 nM	–	–	–
H-Y[Aib]QGTFTSDFS[Orn][αMeL]LDKK([AEEA-γGlu-C18 diacid])AQ[Aib]AFIEYLLEGGPSSGAPPPGGSE-NH2 [Example 65]	30.2 nM	462 nM	808 nM	–	–	–	0.739 nM	4.21 nM	6.49 nM	–	–	–
H-Y[Aib]QGTFTSD[4Pal]SQ[αMeL]LD[Orn]K([AEEA-γGlu-C18 diacid])AQ[αMe4Pal]AFIE[αMeY]LIA[Aib]GPSSGAPPPSGSEE-NH2 [Example 1110]	5.4 nM	52 nM	449 nM	–	–	–	0.059 nM	0.508 nM	5.91 nM	–	–	–
H-Y[Aib]QGT[αMePhe(2-F)]TSD[4Pal]SILLDKK([γGlu-γGlu-C18 diacid])AQ[Aib]AFIEYLEEGGPSSGEPPPSGTEE-NH2 [Example 608]	8.51 nM	201 nM	669 nM	0.124 nM	1.87 nM	7.82 nM	–	–	–	–	–	–
H-Y[Aib]QGT[αMePhe(2-F)]TSD[4Pal][αMeS]I[αMeL]LD[Orn]K([AEEA-γGlu-C18 diacid])AQ[αMe4Pal]EFI[dE][αMeY]LIEGGPPS[Aib]EPPPSGGGE-NH2 [Example 1201]	1.02 nM	93.9 nM	234 nM	–	–	–	–	–	–	0.00959 nM	0.888 nM	1.76 nM
Y[Aib]QGTFTSD[4Pal]SQ[αMeL]LDKK([AEEA-γGlu-C18 diacid])AQ[αMe4Pal]AFIEYLIE[Aib]GPSSGAPPPSGS-NH2 [Example 810]	23.6 nM	256 nM	540 nM	–	–	–	0.156 nM	2.09 nM	3.3 nM	–	–	–
Y[Aib]QGTFTSD[4Pal]SR[αMeL]LDKK([AEEA-γGlu-C18 diacid])AQ[αMe4Pal]AFIE[αMe4Pal]LIEGGPSSGAPPPSGS-NH2 [Example 950]	18.1 nM	328 nM	327 nM	–	–	–	0.18 nM	2.5 nM	1.92 nM	–	–	–
H-Y[Aib]QGT[αMePhe(2-F)]TSD[4Pal][αMeS]I[αMeL]LD[Orn]K([γGlu-γGlu-C18 diacid])AQ[Aib][Orn]FI[dE]YLIEGGPSSGEPPPSGTEEE-NH2 [Example 540]	1.93 nM	38.2 nM	405 nM	0.0296 nM	0.686 nM	5.62 nM	–	–	–	–	–	–
H-Y[Aib]QGTFTSD[4Pal]S[Orn][αMeL]LD[Orn]K([γGlu-γGlu-C18 diacid])AQ[αMe4Pal][Orn]FIEYLLAGGPSSGAPPPSGSEE-NH2 [Example 1004]	35.4 nM	973 nM	237 nM	–	–	–	0.519 nM	9.34 nM	2.67 nM	–	–	–
H-Y[Aib]QGTFTSDFS[Orn][αMeL]LDKK([AEEA-γGlu-C18 diacid])AQ[Aib]AFIEYLLE[Aib]GHSSGAPPPSGE-NH2 [Example 247]	12.9 nM	291 nM	443 nM	–	–	–	0.0794 nM	2.8 nM	1.76 nM	–	–	–
Y[Aib]QGT[αMeF]TSD[4Pal][αMeS]I[αMeL]LD[Orn]K([AEEA-γGlu-C18 diacid])AQ[αMe4Pal]EFI[dE][αMeY]LIEGGPSSGAPPPSGGGE-NH2 [Example 1168]	0.999 nM	65.4 nM	364 nM	–	–	–	0.00839 nM	0.422 nM	2.63 nM	–	–	–
H-Y[Aib]QGT[αMePhe(2-F)]TSD[4Pal]SILLD[Orn]K([γGlu-γGlu-C18 diacid])AQ[Aib]AFIEYLEEGGPSSGAPPPSGTGE-NH2 [Example 514]	10 nM	82 nM	1150 nM	0.0744 nM	0.623 nM	6.68 nM	–	–	–	–	–	–
H-Y[Aib]QGT[αMePhe(2-F)]TSD[4Pal][αMeS]I[αMeL]LD[Orn]K([γGlu-γGlu-C18 diacid])AQ[Aib][Orn]FI[dE][αMeY]LSEGGPSSGEPPPSGQEE-NH2 [Example 570]	13.6 nM	95.1 nM	648 nM	0.186 nM	1.03 nM	5.88 nM	–	–	–	–	–	–
H-Y[Aib]QGTFTSD[4Pal]SR[αMeL]LDKK([γGlu-γGlu-C18 diacid])AQ[αMe4Pal]AFIEYLIAGGESSGAPPPSGSEE-NH2 [Example 965]	23.2 nM	194 nM	430 nM	–	–	–	0.13 nM	1.39 nM	3.35 nM	–	–	–
H-Y[Aib]QGT[αMePhe(2-F)]TSD[4Pal][αMeS]I[αMeL]LD[Orn]QAQ[αMe4Pal]EFI[dE][αMeY]LVEGGPSSGAPPPSGS-NH2 [Example 1231]	0.00994 nM	1.22 nM	17.1 nM	–	–	–	–	–	–	0.0146 nM	1.23 nM	15.7 nM
H-Y[Aib]QGT[αMePhe(2-F)]TSD[4Pal][αMeS]I[αMeL]LD[Orn]K([γGlu-γGlu-C18 diacid])AQ[Aib][Orn]FI[dE][αMeY]LSEGGPSSGEPPPSGTE-NH2 [Example 517]	9.12 nM	50 nM	337 nM	0.158 nM	0.646 nM	4.69 nM	–	–	–	–	–	–
H-Y[Aib]QGTFTSD[4Pal][αMeS]Q[αMeL]LD[Orn]K([dE-γGlu-C18 diacid])AQ[αMe4Pal]QFIQ[αMeY]LIAGGPSSGEPPPSGGGE-NH2 [Example 1133]	4.24 nM	47.8 nM	216 nM	–	–	–	0.0719 nM	0.768 nM	2.95 nM	–	–	–
H-Y[Aib]QGTFTSD[4Pal]SQ[αMeL]LDKK([dE-γGlu-C18 diacid])AQ[αMe4Pal]AFIEYLIAGGPSSGAPPPSGE-NH2 [Example 1085]	9.84 nM	188 nM	1370 nM	–	–	–	0.0827 nM	1.28 nM	11.6 nM	–	–	–
